This is an account of results in patent US4436733A, “4"- And 3-ester derivatives of DMT and DMOT” (Eli Lilly and Company, priority 1982, dated 1984).

Assay type in all cases: cell-based
In experiment [1] the test system is Staphylococcus aureus S13E. Put plainly: standard agar-dilution assay, MIC. The procedure:
(§1) The MIC's in Table III were determined by standard agar-dilutionassays. The MIC's in Table IV were obtained using a conventional broth-dilution microtiter test.

For experiment [2], the system named is Staphylococcus aureus X1.1. Put plainly: standard agar-dilution assay, MIC. The procedure: as §1
Experiment [3] relates to Staphylococcus epidermidis EPI1. Briefly: standard agar-dilution assay, MIC. The procedure:
as §1

In experiment [4] the test system is Staphylococcus epidermidis EPI2. Briefly: standard agar-dilution assay, MIC. The procedure: as §1
The next experiment relates to Streptococcus Group 9960. Put plainly: standard agar-dilution assay, MIC. The procedure: as §1
In experiment [5] the test system is Streptococcus Group D X66. Put plainly: standard agar-dilution assay, MIC. The procedure:
as §1

The subject of experiment [6] is Streptococcus pneumoniae Park I. Briefly: standard agar-dilution assay, MIC. The procedure: as §1
The subject of experiment [7] is Streptococcus pyogenes C203. Put plainly: standard agar-dilution assay, MIC. The procedure:
as §1

The test system of experiment [8] is Staphylococcus aureus V41. Briefly: standard agar-dilution assay, MIC. The note with it: Staphylococcus aureus V41, penicillin resistant strain. The procedure: as §1
^b Penicillinresistant strain

Experiment [9] has as its system Staphylococcus aureus X400. Briefly: standard agar-dilution assay, MIC. The following applies: Staphylococcus aureus X400, methicillin resistant strain. The procedure: as §1
^c Methicillinresistant-strain

Experiment [10] relates to Haemophilus influenzae Holt. Briefly: standard agar-dilution assay, MIC. The following applies: ampicillin sensitive strain. The procedure:
as §1
^d Ampicillinsensitive strain

In experiment [11] the test system is Haemophilus influenzae R252. Put plainly: standard agar-dilution assay, MIC. The following applies: Haemophilus influenzae R252, ampicillin resistant strain. The procedure: as §1
^e Ampicillinresistant strain

The next experiment relates to Mycoplasma gallisepticum. Put plainly: conventional broth-dilution microtiter test, MIC. The procedure: as §1
The next experiment deals with Mycoplasma hyorhinis. Briefly: conventional broth-dilution microtiter test, MIC. The procedure: as §1
For experiment [12], the system named is Pasteurella multocida 17E. Put plainly: conventional broth-dilution microtiter test, MIC. The note with it: bovine isolate. The procedure:
as §1

For experiment [13], the system named is Pasteurella multocida 60A. Put plainly: conventional broth-dilution microtiter test, MIC. The note with it: avian isolate. The procedure:
as §1

The test system of the next experiment is Staphylococcus aureus. Briefly: conventional broth-dilution microtiter test, MIC. The procedure:
as §1

Another experiment has as its system Streptococcus sp. 80. Briefly: conventional broth-dilution microtiter test, MIC. The procedure:
as §1

Molecules are shown by their SMILES.

Turning to `CCC1OC(=O)CC(OC(=O)C(Cl)(Cl)Cl)C(C)C(OC2OC(C)C(OC3CC(C)(O)C(OC(=O)C(Cl)(Cl)Cl)C(C)O3)C(N(C)C)C2OC(C)=O)C(CC=O)CC(C)C(=O)C=CC(C)=CC1COC(=O)C(Cl)(Cl)Cl` (stereo not drawn) [Compound 13, 2'-O-acetyl-3,23,4"-tri-O-trichloroacetyl-DMT], the “MIC (minimal inhibitory concentration)” value in experiment [1] stood at 8; in experiment [2], 8; in experiment [3] it was 8; in experiment [4], 16; against Streptococcus Group 9960, 16; in [5], 16. The “MIC (minimal inhibitory concentration)” value was 2 in experiment [6]; 8 in [7]; 16 in experiment [8]; 16 in experiment [9]; 128 in experiment [10]; 128 in experiment [11].
For `CCC(=O)OC1C(C)OC(OC2C(C)OC(OC3C(CC=O)CC(C)C(=O)C=CC(C)=CC(CO)C(CC)OC(=O)CC(O)C3C)C(O)C2N(C)C)CC1(C)O` (stereo not drawn) [Compound 16, 4"-O-Propionyl-DMT], the “MIC (minimal inhibitory concentration)” value in experiment [1] stood at 0.5; in experiment [2] it was 0.5; in [3], 0.5; in [4], 1; in the experiment on Streptococcus Group 9960, 0.5; in [5], 0.5. Further, the “MIC (minimal inhibitory concentration)” value in experiment [6] amounted to 0.06; in [7], 0.125; in [8], 0.5; in experiment [9], 1; in experiment [10], 4; in [11], 2.
For the compound `CCC1OC(=O)CC(O)C(C)C(OC2OC(C)C(OC3CC(C)(O)C(OC(=O)CC(C)C)C(C)O3)C(N(C)C)C2OC(C)=O)C(CC=O)CC(C)C(=O)C=CC(C)=CC1C` (stereo not drawn) [Compound 18, 2'-O-Acetyl-4"-O-Isovaleryl-DMOT], the “MIC (minimal inhibitory concentration)” value in experiment [1] was 1; in experiment [2], 1; in [3], 1; in [4], 2; against Streptococcus Group 9960, 1; in experiment [5], 1. Besides, the “MIC (minimal inhibitory concentration)” value in experiment [6] is 0.06; in experiment [7], 0.5; in experiment [8], 1; in experiment [9], 1; in experiment [10], 32; in experiment [11], 32. Further, the “MIC (minimal inhibitory concentration)” value in the experiment on Mycoplasma gallisepticum is 0.39; with Mycoplasma hyorhinis, 0.78; in [12], 12.5; in experiment [13], more than 50; against Staphylococcus aureus, 0.78; against Streptococcus sp. 80, 0.39.
